Measured values: PubChem BioAssay (NCI)
“And” between values parts separate entries of the source, which are not always exact repeats. Equal entries are not always repeated.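 Dose response: 5 concentrations. Exposure: 48 h. Format: 96-well plates. Endpoint: linear interpolation; highest concentration if not reached. GI50: concentration for 50% inhibition of growth. TGI is the concentration that stops growth completely.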

Experiments:
Test in all cases: NCI tumour cell line growth inhibition, 48 h
[1] = test system: NCI/ADR-RES ovarian
[2] = test system: T-47D breast
[3] = test system: MDA-MB-231 breast
[4] = test system: MCF7 breast
[5] = test system: LXFL 529 NSCLC
[6] = test system: M19-MEL melanoma
[7] = test system: SNB-78 CNS
[8] = test system: DMS 114 small cell lung
[9] = test system: DLD-1 colon

Work on CC1(C)CC[C@H](Nc2ncc(C(F)(F)F)c(-c3c[nH]c4c(P(C)(C)=O)c(C#N)ccc34)n2)CN1 yielded a GI50 [1] of 3.18 µM, a TGI [1] of 27.6 µM and a GI50 [2] of 0.0255 µM. For the same compound, the TGI [2] was 5.84 µM, the GI50 [3] was 0.4 µM and the TGI [3] was 9.08 µM. The GI50 [4] was < 0.0137 µM and the TGI [4] was 10.2 µM.
With FC(F)(F)c1cc(-c2nnc3n2N=C(N2CCCC2)CS3)cc(C(F)(F)F)c1 the GI50 [1] was > 50 µM, the TGI [1] was > 50 µM and the GI50 [2] was 19.3 µM. For the same compound, the TGI [2] was > 50 µM, the GI50 [3] was 32.2 µM and the TGI [3] was > 50 µM. For the same compound, the GI50 [4] was > 50 µM and the TGI [4] was > 50 µM.
With CCCCS(=O)CCC(N)C(=O)O (centres undefined) the TGI [1] was > 100 µM, the TGI [2] was > 100 µM and the TGI [3] was > 100 µM. The TGI [4] was > 100 µM.
For CCCc1c(CC)c(=N)c2ccccc2n1C, the GI50 [1] was > 100 µM, the TGI [1] was > 100 µM and the GI50 [2] was 33 µM. The TGI [2] was > 100 µM, the GI50 [3] was > 100 µM and the TGI [3] was > 100 µM. The GI50 [4] was 30 µM and the TGI [4] was > 100 µM.
With CCc1cccc(C(C)C)c1NC(=O)C(=O)CC(=O)c1c(C)n([O-])c2ccccc2[n+]1=O the TGI [5] was > 100 µM, the TGI [6] was > 100 µM and the TGI [7] was > 100 µM. For the same compound, the TGI [8] was > 100 µM and the TGI [9] was > 100 µM.
COc1cc(/C=C2\CCC/C(=C\c3cc(OC)c(O)c(OC)c3)C2=O)cc(OC)c1O showed a TGI [2] of 75 µM, a TGI [3] of 10.8 µM and a GI50 [4] of 4 µM. For the same compound, the TGI [4] was 75 µM and > 100 µM.
With O=C(Nc1cccc([N+](=O)[O-])c1)C(=O)C(C(=O)c1ccccc1-c1ccccc1)C1OC(=O)c2ccccc21 (centres undefined) the TGI [5] was 27.4 µM, the TGI [6] was 38.1 µM and the TGI [7] was > 100 µM. It also gave a TGI [8] of 33.1 µM and a TGI [9] of 42.2 µM.
For Cc1c(S(C)(=O)=O)c(-c2cc(F)cc(N3CCN(c4ccc(NS(=O)(=O)c5ccc(N[C@H](CCN6CCC(C(=O)OCCCP(=O)(O)O)CC6)CSc6ccccc6)c(S(=O)(=O)C(F)(F)F)c5)cc4)CC3)c2)c(-c2ccc(Cl)cc2)n1C(C)C, the GI50 [1] was > 100 µM, the TGI [1] was > 100 µM and the GI50 [2] was > 100 µM. The TGI [2] was > 100 µM, the GI50 [3] was 3.13 µM and the TGI [3] was 28 µM. The GI50 [4] was > 100 µM and the TGI [4] was > 100 µM.
C/C(=N\O)c1cccc(Nc2cc(-n3ccnn3)c3ccccc3n2)c1 was tested, and the GI50 [1] was 20.8 µM, the TGI [1] was > 100 µM and the GI50 [2] was 14.9 µM. It also gave a TGI [2] of 64.9 µM, a GI50 [3] of 10.2 µM and a TGI [3] of 25.9 µM. The GI50 [4] was > 100 µM and the TGI [4] was > 100 µM.
For COc1ccc(-c2cc(=O)c3c(C)cc(C)nc3[nH]2)cc1, the TGI [1] was > 100 µM, the TGI [2] was > 100 µM and the TGI [3] was 67.5 µM. The TGI [4] was > 100 µM.
For CSC(CC(=O)O)C(=O)O (centres undefined), the TGI [1] was > 100 µM, the TGI [2] was > 100 µM and the TGI [3] was > 100 µM. For the same compound, the TGI [4] was > 100 µM.
With C=CCN(/C=C1/C(=O)O[C@H](COC)[C@@]2(C)C1=C(O)C(=O)C1=C2[C@H](OC(C)=O)C[C@]2(C)C(=O)CC[C@@H]12)CC=C the GI50 [1] was > 4.75 µM, the TGI [1] was > 10 µM and the GI50 [2] was 0.0992 µM. For the same compound, the TGI [2] was > 3.78 µM, the GI50 [3] was 6.23 µM and the TGI [3] was > 10 µM. The GI50 [4] was 0.435 µM and the TGI [4] was > 10 µM.
With COc1ccc(C2SCC(=O)N2NC(=O)C(O)c2ccccc2)cc1OC (centres undefined) the GI50 [1] was > 100 µM, the TGI [1] was > 100 µM and the GI50 [2] was > 100 µM. The TGI [2] was > 100 µM, the GI50 [3] was > 100 µM and the TGI [3] was > 100 µM. The GI50 [4] was > 100 µM and the TGI [4] was > 100 µM.
With CS(=O)(=O)OCCN1CCN(C(=O)c2cccc3c(Nc4ccc(S(=O)(=O)N=C(N)N)cc4)c4ccccc4nc23)CC1 the TGI [6] was > 100 µM, the TGI [7] was > 100 µM and the TGI [8] was > 100 µM. The TGI [9] was > 100 µM.
For CCn1c(C(=O)N(C2CC2)C2CC2)cc2c3c(ncn3C)c(Nc3cc(C)n(C)n3)nc21, the GI50 [1] was > 100 µM, the TGI [1] was > 100 µM and the GI50 [2] was > 100 µM. For the same compound, the TGI [2] was > 100 µM, the GI50 [3] was 35.5 µM and the TGI [3] was > 100 µM. For the same compound, the GI50 [4] was > 100 µM and the TGI [4] was > 100 µM.
Cc1ccc(S(=O)(=O)NCCNC2=CC(=O)c3nc4ccccc4c4ccnc2c34)cc1 was tested, and the GI50 [1] was 17 µM, the TGI [1] was 55.4 µM and the GI50 [2] was 25.6 µM. It also gave a TGI [2] of 95.9 µM, a GI50 [3] of 24 µM and a TGI [3] of 66.1 µM. The GI50 [4] was 12.9 µM and the TGI [4] was 32.7 µM.
For O=Nc1c(-c2c(O)[nH]c3ccc([N+](=O)[O-])cc23)[nH]c2ccc(O)cc12, the GI50 [1] was 1.44 µM, the TGI [1] was > 100 µM and the GI50 [2] was 0.506 µM. The TGI [2] was > 100 µM, the GI50 [3] was 0.5 µM and the TGI [3] was > 52.7 µM. For the same compound, the GI50 [4] was 0.247 µM and the TGI [4] was > 100 µM.
With COc1cc(/C=C\c2ccc(C)cc2)cc(OC)c1OC the TGI [5] was 46.1 µM, the TGI [1] was 0.111 µM and 0.158 µM and the GI50 [6] was 0.0127 µM. The TGI [6] was > 100 µM, the TGI [4] was > 100 µM and the TGI [8] was 20.8 µM. The TGI [9] was > 100 µM.
Compound C[C@H](NC(=O)[C@@H]1CSSC[C@@H](NC(=O)c2nc3ccccc3cc2O)C(=O)NCC(=O)N1C)c1ccccc1 has a GI50 [1] of 11 µM, a TGI [1] of 50 µM and a GI50 [2] of 1.11 µM. For the same compound, the TGI [2] was 3.79 µM, the GI50 [3] was 1.94 µM and the TGI [3] was 7.84 µM. It also gave a GI50 [4] of 0.835 µM and a TGI [4] of 2.47 µM.
In the case of COc1ccc(-c2nc3sc(-c4ccc(Cl)cc4)cn3n2)cc1, the GI50 [1] is reported as 3.75 µM, the TGI [1] is reported as > 50 µM and the GI50 [2] is reported as 3.54 µM. For the same compound, the TGI [2] was > 50 µM, the GI50 [3] was 2.06 µM and the TGI [3] was 16.7 µM. For the same compound, the GI50 [4] was 2.62 µM and the TGI [4] was > 50 µM.
With CCCCCCCCCCCCCCN the TGI [1] was > 100 µM, the TGI [2] was > 100 µM and the TGI [3] was > 100 µM. For the same compound, the TGI [4] was > 100 µM.
For CN1CCN(c2ccc(NC(=O)c3nc4ccc5[nH]ncc5c4c4c3CCCC4)cc2C(F)(F)F)CC1, the GI50 [1] was 1.27 µM, the TGI [1] was 4.21 µM and the GI50 [2] was 0.835 µM. For the same compound, the TGI [2] was 1.74 µM, the GI50 [3] was 0.941 µM and the TGI [3] was 1.72 µM. For the same compound, the GI50 [4] was 0.964 µM and the TGI [4] was 2.32 µM.
Work on Cc1ccc(/C(=N\N=C(N)N)c2ccccc2)cc1 yielded a GI50 [1] of 1.09 µM, a TGI [1] of 4.51 µM and a GI50 [2] of 0.421 µM. It also gave a TGI [2] of 24.6 µM, a GI50 [3] of 0.394 µM and a TGI [3] of 3.93 µM. For the same compound, the GI50 [4] was 0.292 µM and the TGI [4] was 10.2 µM.
In the case of O=C(Nc1ccc(F)cc1)c1ccc(NC2=C(Cl)C(=O)N(Cc3ccccc3)C2=O)cc1, the GI50 [1] is reported as 53.3 µM, the TGI [1] is reported as > 100 µM and the GI50 [2] is reported as 5.69 µM. For the same compound, the TGI [2] was > 100 µM, the GI50 [3] was 17.2 µM and the TGI [3] was 38 µM. For the same compound, the GI50 [4] was 6.24 µM and the TGI [4] was > 100 µM.
With O=C(O)COc1ccc(O)c2c1C(=O)CCCC2=O the TGI [5] was > 100 µM, the TGI [6] was > 100 µM and the TGI [7] was > 100 µM. The TGI [8] was > 100 µM and the TGI [9] was > 100 µM.
Compound CC(C)CNCC(O)COc1ccc(C(C)(C)c2ccc(OCC(O)CNCC(C)C)cc2)cc1 (centres undefined) has a GI50 [1] of 7.63 µM, a TGI [1] of 21.4 µM and a GI50 [2] of 1.63 µM. For the same compound, the TGI [2] was 3.63 µM, the GI50 [3] was 1.5 µM and the TGI [3] was 3.25 µM. It also gave a GI50 [4] of 1.73 µM and a TGI [4] of 3.48 µM.
